From ChEMBL document CHEMBL5137032, “Design, synthesis of DNA-interactive 4-thiazolidinone-based indolo-/pyrroloazepinone conjugates as potential cytotoxic and topoisomerase I inhibitors” (Eur J Med Chem, 2022)
Calls of active or inactive are those of the source. The calls are words filed in the database; no cut-off is given here.

Assays:
Type in all cases: functional, cell-based
A549 [1] = assay: Cytotoxicity against human A549 cells assessed as cell growth inhibition incubated for 48 hrs by MTT assay; conditions: A549, 48 h
HCT-116 = assay: Cytotoxicity against human HCT-116 cells assessed as cell growth inhibition incubated for 48 hrs by MTT assay; conditions: HCT-116, 48 h
SK-MEL-28 [2] = assay: Cytotoxicity against human SK-MEL-28 cells assessed as cell growth inhibition incubated for 48 hrs by MTT assay; conditions: SK-MEL-28, 48 h
HT-29 = assay: Cytotoxicity against human HT-29 cells assessed as cell growth inhibition incubated for 48 hrs by MTT assay; conditions: HT-29, 48 h
MCF7 = assay: Cytotoxicity against human MCF7 cells assessed as cell growth inhibition incubated for 48 hrs by MTT assay; conditions: MCF7, 48 h
A549 [3] = assay: Induction of intracellular ROS generation in human A549 cells at […] incubated for 48 hrs by […] fluorescence microscopic analysis; conditions: dose 0.47 µM
SK-MEL-28 [4] = assay: Induction of intracellular ROS generation in human SK-MEL-28 cells at 2.26 uM incubated for 48 hrs by […] fluorescence microscopic analysis

| SMILES | IC50 (A549 [1]) | IC50 (HCT-116) | IC50 (SK-MEL-28 [2]) | IC50 (HT-29) | IC50 (MCF7) | Activity (A549 [3]) | Activity (SK-MEL-28 [4]) |
| --- | --- | --- | --- | --- | --- | --- | --- |
| O=C1N/C(=N\Cc2ccc(Cl)cc2)S/C1=C1/CCNC(=O)c2[nH]ccc21 | > 100 µM | > 100 µM | > 100 µM | > 100 µM | > 100 µM | – | – |
| O=C1N/C(=N\Cc2ccccc2)S/C1=C1/CCNC(=O)c2[nH]ccc21 | 26.9 µM | 49.7 µM | 38.4 µM | 36.5 µM | 31.1 µM | – | – |
| CC[C@@]1(O)C(=O)OCc2c1cc1n(c2=O)Cc2cc3ccccc3nc2-1 [CAMPTOTHECIN] | 0.47 µM | – | 2.26 µM | – | – | Active | Active |
| COc1ccc(CC/N=C2\NC(=O)/C(=C3\CCNC(=O)c4[nH]c5ccccc5c43)S2)cc1 | 20.5 µM | 18.6 µM | 3.49 µM | 15 µM | 9.41 µM | – | – |
| COc1ccc(C/N=C2\NC(=O)/C(=C3\CCNC(=O)c4c3ccn4C)S2)cc1 | > 100 µM | > 100 µM | > 100 µM | 32.4 µM | > 100 µM | – | – |
| O=C1N/C(=N\Cc2ccc(C(F)(F)F)cc2)S/C1=C1/CCNC(=O)c2[nH]ccc21 | > 100 µM | > 100 µM | > 100 µM | > 50 µM | > 100 µM | – | – |
| O=C1N/C(=N\Cc2cccc(Cl)c2)S/C1=C1/CCNC(=O)c2[nH]ccc21 | 35.2 µM | – | 34.6 µM | 35.3 µM | 20.7 µM | – | – |
| O=C1N/C(=N\Cc2ccc3c(c2)OCO3)S/C1=C1/CCNC(=O)c2[nH]ccc21 | 19.9 µM | 4.25 µM | 11.2 µM | 16.5 µM | 4.31 µM | – | – |
| O=C1N/C(=N\Cc2ccc3c(c2)OCO3)S/C1=C1/CCNC(=O)c2[nH]c3ccccc3c21 | > 50 µM | 21.4 µM | > 50 µM | 36.5 µM | 31.4 µM | – | – |
| COc1ccc(C/N=C2\NC(=O)/C(=C3\CCNC(=O)c4[nH]ccc43)S2)cc1 | 18.3 µM | 19.4 µM | 12.1 µM | 11.5 µM | 6.24 µM | – | – |
| O=C1N/C(=N\Cc2ccccc2)S/C1=C1/CCNC(=O)c2[nH]c3ccccc3c21 | 48.2 µM | 34.4 µM | 29.8 µM | 31.8 µM | 31 µM | – | – |
| O=C1N/C(=N\Cc2ccccc2Cl)S/C1=C1/CCNC(=O)c2[nH]ccc21 | > 100 µM | > 50 µM | > 100 µM | > 100 µM | 21.2 µM | – | – |
| Cn1c2c(c3ccccc31)/C(=C1\S/C(=N/Cc3ccccc3)NC1=O)CCNC2=O | > 50 µM | > 50 µM | > 50 µM | > 50 µM | > 50 µM | – | – |
| COc1ccc(C/N=C2\NC(=O)/C(=C3\CCNC(=O)c4[nH]c5ccccc5c43)S2)cc1 | 3.73 µM | 17.5 µM | 9.68 µM | 12.3 µM | 6.33 µM | – | – |
| CC(C)(C)c1ccc(C/N=C2\NC(=O)/C(=C3\CCNC(=O)c4[nH]ccc43)S2)cc1 | 43.9 µM | > 100 µM | 23.5 µM | 43.4 µM | 18.9 µM | – | – |
| O=C1N/C(=N\CCc2ccccc2)S/C1=C1/CCNC(=O)c2[nH]ccc21 | 19.5 µM | 17.8 µM | 12.3 µM | 24.9 µM | 21 µM | – | – |
| O=C1N/C(=N\CCc2ccc(F)cc2)S/C1=C1/CCNC(=O)c2[nH]c3ccccc3c21 | > 50 µM | > 50 µM | > 50 µM | > 50 µM | > 50 µM | – | – |
| CC(C)(C)c1ccc(C/N=C2\NC(=O)/C(=C3\CCNC(=O)c4[nH]c5ccccc5c43)S2)cc1 | 19.3 µM | 15.9 µM | 8.97 µM | 13.6 µM | 9.01 µM | – | – |
| O=C1N/C(=N\Cc2ccc(F)cc2)S/C1=C1/CCNC(=O)c2[nH]ccc21 | 22.4 µM | 16.9 µM | 11.2 µM | 26 µM | 43.1 µM | – | – |
| COc1cccc2c1C(=O)c1c(O)c3c(c(O)c1C2=O)C[C@@](O)(C(=O)CO)C[C@@H]3O[C@H]1C[C@H](N)[C@H](O)[C@H](C)O1 [DOXORUBICIN] | – | 7.41 µM | 1.64 µM | – | – | – | – |
| COc1ccc(C/N=C2\NC(=O)/C(=C3\CCNC(=O)c4[nH]c5ccccc5c43)S2)cc1OC | 30 µM | 16.4 µM | 25.1 µM | > 50 µM | 23.7 µM | – | – |
| O=c1[nH]cc(F)c(=O)[nH]1 [FLUOROURACIL] | – | – | 14.6 µM | 23.9 µM | 21.1 µM | – | – |
| O=C1N/C(=N\Cc2ccc(F)cc2)S/C1=C1/CCNC(=O)c2[nH]c3ccccc3c21 | 36.5 µM | 30.8 µM | > 50 µM | 38 µM | 40.3 µM | – | – |
| O=C1N/C(=N\Cc2cccc(Cl)c2)S/C1=C1/CCNC(=O)c2[nH]c3ccccc3c21 | 33.7 µM | 25.2 µM | 23.8 µM | > 50 µM | 28.1 µM | – | – |
| COc1ccc(CC/N=C2\NC(=O)/C(=C3\CCNC(=O)c4[nH]ccc43)S2)cc1 | 16 µM | 10.8 µM | 7.86 µM | 8.14 µM | 6.47 µM | – | – |
| O=C1N/C(=N\Cc2ccc(Cl)cc2)S/C1=C1/CCNC(=O)c2[nH]c3ccccc3c21 | 33.6 µM | 22.7 µM | > 50 µM | 39.9 µM | 46.8 µM | – | – |
